Measured values published in patent publication US10894777B2, “TG2 inhibitor piperazine compounds and uses thereof” (UNIVERSITY OF OTTAWA, priority 2016, dated 2021).

How the values were obtained:
TG2 [1] = biological target: T1, TG2 (Homo sapiens, UniProt P21980); assay: Colorimetric transamidase activity assay (AL5 substrate), hTG2; format: biochemical
T1 sequence (P21980 1-687): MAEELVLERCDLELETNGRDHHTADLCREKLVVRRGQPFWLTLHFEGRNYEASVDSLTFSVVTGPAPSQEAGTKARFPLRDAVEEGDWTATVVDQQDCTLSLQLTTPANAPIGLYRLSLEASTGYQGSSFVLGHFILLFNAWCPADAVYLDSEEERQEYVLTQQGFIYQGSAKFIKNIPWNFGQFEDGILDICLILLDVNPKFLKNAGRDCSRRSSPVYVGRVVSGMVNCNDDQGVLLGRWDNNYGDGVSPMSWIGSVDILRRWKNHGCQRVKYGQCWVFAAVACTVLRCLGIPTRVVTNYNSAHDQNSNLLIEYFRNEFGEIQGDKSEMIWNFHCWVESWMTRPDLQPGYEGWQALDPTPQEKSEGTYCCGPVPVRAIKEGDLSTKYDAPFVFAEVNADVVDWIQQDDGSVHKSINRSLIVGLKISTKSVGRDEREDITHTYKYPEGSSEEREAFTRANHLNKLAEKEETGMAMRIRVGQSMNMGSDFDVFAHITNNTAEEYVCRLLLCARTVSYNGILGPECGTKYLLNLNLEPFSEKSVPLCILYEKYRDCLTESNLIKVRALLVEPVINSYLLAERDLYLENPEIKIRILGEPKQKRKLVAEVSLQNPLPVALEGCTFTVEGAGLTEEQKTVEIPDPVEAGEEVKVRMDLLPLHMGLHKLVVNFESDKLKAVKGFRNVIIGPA
Experimental: In Vitro Assays. Colorimetric transamidase activity assay. The activities of hTG1, hTG2 and hTG6 were measured via a colorimetric assay using the chromogenic substrate Cbz-Glu(γ-p-nitrophenyl ester)Gly (AL5). The assay was conducted at 25° C. in 100 mM MOPS buffer (pH 6.5) containing 3.0 mM CaCl2 and 50 μM EDTA. […] A stock solution of AL5 was prepared in DMSO such that the final concentration of this co-solvent was constant at 2.5% v/v. Stock solutions of the inhibitors were made in the buffer system previously described. The reaction was initiated with the addition of 40-60 mU/mL of the respective enzyme (0.10 μM hTG1, 0.25 μM hTG2 or 0.32 μM hTG6). Product formation was monitored at 405 nm in a polystyrene 96-well microplate using a BioTek Synergy 4 plate reader. […] Observed first-order rate constants of inactivation (kobs) were determined from non-linear regression fit to a mono-exponential model (Equation 1) of the observed absorbance of the enzymatic hydrolysis product, p-nitrophenolate (pNP). […] Experiments were done in triplicate and variation between repeats was less than 30%.

T98G cells = assay: Agarose colony formation assay, T98G cells; format: cell-based, human; conditions: 10 μM, 2 weeks
Experimental: Agarose colony formation assay. Agarose colony formation assay was conducted as described (Horman, S. R. et al., J. Biomol. Screen 18(10):1298-308, 2013; Zhang, K. et al., Tumour Biol. 35(3):2537-48, 2014) using 6-well plates and 5,000 cells in each well. 10 μM NC9 or DMSO was added to every layer at the start of the experiments. 2 mL liquid MEM containing 10 μM NC9 or DMSO was used to cover the agarose and it was changed 3 times a week. Colony growth was monitored every day and at the end of 10-15 days, the colonies were fixed with 4% paraformaldehyde, stained with 0.005% crystal violet, washed with PBS twice and 40 random pictures were taken from each treatment group. A person blinded for the treatments measured the area of the colonies using ImageJ program and the volumes were calculated from the area data under the assumption that the colonies are perfect spheres. The volumes were used to compare the effect of NC9 on colony growth.

GBM cells (U87 and T98G) = assay: EdU incorporation assay; format: cell-based, human; conditions: 24 h
Experimental: EdU Incorporation Assay. After treatment of cells seeded in PolyD-Lys coated coverslips, half of the media was replaced with 10 μM EdU in 10% FBS MEM. After 90 min, cells were fixed with 4% PFA and permeabilized with 0.5% Triton X-100. Detection of EdU was performed as directed in the Click-iT EdU Alexa 647 kit (Life Technologies). 1:2000 Hoechst dilution was used to stain nuclei. Randomized pictures were taken for each group and a person blinded for the treatments counted the EdU and Hoechst positive cells.

TG2 [2] = biological target: T1, TG2; assay: Inhibitor modulation of recombinant TG2 conformation (native gel); format: biochemical; parameters: made in house; conditions: 500 μM inhibitor 1 h, then 0 or 500 μM GTP
Experimental: Inhibitor modulation of recombinant TG2 conformation. Recombinant TG2 protein was prepared in the Center for Biomolecular Therapeutics by Dr. Eric Toth (University of Maryland School of Medicine). […] In some experiments, inhibitor and GTP were added simultaneously. Laemmli native loading buffer was added, and 6 μg of protein was electrophoresed on a native 4% to 6% acrylamide gel and electrophoresed at 125 V for 45 min at 4° C. using Tris-glycine running buffer (Pinkas, D. M. et al., PLoS Biol 5:e327, 2007; Begg, G. E. et al., Proc. Natl. Acad. Sci. USA 103:19683-8, 2006). The gel was subsequently fixed in 40% methanol/10% acetic acid for 30 min, stained 30 minutes with 0.25% Coomassie R-250, destained overnight with 10% methanol/10% acetic acid and photographed.

[3] = test system: TG2 fusion protein mCer-TG2-YFP; assay: Fluorescence lifetime imaging (FLIM) of TG2 conformation, HaCaT cells; format: cell-based, human; conditions: 5 μM
Experimental: HaCaT cells were electroporated with mCer-TG2 or […] and then treated with 0 or 5 μM of the indicated inhibitor and fluorescent lifetime was monitored. […] HaCaT cells were preloaded with fluorescein cadaverine, treated with the indicated inhibitor and then challenged with calcium ionophore, washed and assayed for FC incorporation. […] The beads were then washed, boiled in Laemmli buffer and electrophoresed for immunoblot detection of TG2. Cell equivalent quantities of total and bound samples were electrophoresed to facilitate comparison of GTP bound versus total. […] Experiments were performed as described in FIGS. 31 (F) and (G).
Fluorescence lifetime imaging. Fluorescence lifetime images were acquired using FLIM system (Alba 5 from ISS). […] Emission was observed through bandpass filter 480/35 nm (Chroma Technology) and detected by a photomultiplier H7422-40 (Hamamatsu). FLIM data were acquired using time-domain modality (SPC-830 TCSPC module from Becker and Hickl GmbH). […] To account for intensity heterogeneity within single intensity images, two to five consecutive scans were acquired and summed to build FLIM intensity image for lifetime analysis. […] FLIM data were analyzed using VistaVision Suite software (Vista v.213 from ISS). Lifetime images were generated by fitting data using single exponential intensity decay model. Intensity threshold for lifetime analysis was set of at least 3-fold above the intensity of dim cells and fitting procedure was performed for binned pixels at level of 3 (7×7 pixels). Lifetime distribution within image is represented with histogram showing pixel frequency of specific lifetime. The average lifetime values with standard deviations were calculated based on all processed pixels in lifetime image. FRET values were calculated according to the formula ET=1−(τDA/τD), where τD is the lifetime of donor (mCer-TG2) and τDA is the lifetime of donor-acceptor pair (mCer-TG2—YFP).

Compound	kobs (10^−3 min^−1), TG2 (TG2 [1]; Table 9, Kitz and Wilson conditions, inhibitor concentration adjusted for competition with substrate)	colony growth, T98G (T98G cells)	proliferation (EdU incorporation) (GBM cells (U87 and T98G))	recombinant TG2 conformation, pre-incubation with inhibitor (TG2 [2])	fluorescence lifetime / TG2 structure [3]	reduction in the inhibition binding constant (TG2 [1]; compared to NC9)	kinact (TG2 [1]; Table 8, read-out: kinact (converted)) [s⁻¹]	kinact/KI (TG2 [1]; read-out: kinact/KI (10^3M^−1 min^−1), Table 8) [M⁻¹ s⁻¹]
C=CC(=O)NCCCC[C@H](NC(=O)OCc1ccccc1)C(=O)NCCOCCOCCNS(=O)(=O)c1cccc2c(N(C)C)cccc12 [NC9]	390 ± 49 10^−3 min^−1	significantly reduced the growth	slowed down the proliferation	shifted TG2 from the closed to extended conformation and that this was not reversed by GTP addition	increased fluorescence lifetime	–	–	–
C=CC(=O)NCCCC[C@H](NC(=O)OCc1ccccc1)C(=O)N1CCN(S(=O)(=O)c2cccc3c(N(C)C)cccc23)CC1 [VA4, (S)-benzyl(6-acrylamido-1-(4-((5-(dimethylamino)naphthalen-1-yl)sulfonyl)piperazin-1-yl)-1-oxohexan-2-yl)carbamate]	–	inhibited colony growth	slowed down the proliferation	shifted TG2 from the closed to extended conformation and that this was not reversed by GTP addition	increased fluorescence lifetime	greater than two-fold reduction	–	–
C=CC(=O)NCCCC[C@H](NC(=O)OCc1ccccc1)C(=O)N1CCN(C(=O)c2cc3ccc(O)cc3oc2=O)CC1 [VA5, (S)-Benzyl(6-acrylamido-1-(4-(7-hydroxy-2-oxo-2H-chromene-3-carbonyl)piperazin-1-yl)-1-oxohexan-2-yl)carbamate]	–	did not suppress colony growth	no effect	shifted TG2 from the closed to extended conformation and that this was not reversed by GTP addition	increased fluorescence lifetime	–	0.0115	1040
